Results as given in US6770597B2, “Benzohydrazide derivatives as herbicides and desiccant compositions containing them” (Ishihara Sangyo Kaisha, Ltd., priority 2002, dated 2004).

Assays:
Assay type in all cases: in vivo
[1] = system: common ragweed (Ambrosia artemisiifolia L., AMBEL); experiment: Greenhouse herbicide screen, post-emerge application, phytotoxicity rating; details: POST emergent, 14 days after application, scale 0-100
Description: (§1) A standard greenhouse herbicide activity screening system was used to evaluate the herbicidal efficacy and crop safety of these test compounds. Seven broadleaf weed species including redroot pigweed (Amaranthus retrofiexus, AMARE), velvetleaf (Abutilon theophrasti, ABUTH), sicklepod (Cassia obtusifolia, CASOB), ivyleaf morningglory (Ipomoea hederacea, IPOHE), lambsquarters (Chenopodium album, CHEAL), common ragweed (Ambrosia artemisiifolia L., AMBEL), and cocklebur (Xanthium strumarium, XANST) were used as test species. Four grass weed species including green foxtail (Setaria viridis, SETVI), barnyardgrass (Echinochloa crus-galli, ECHCG), johnsongrass (Sorghum halepense, SORHA), and large crabgrass (Digitaria sanguinalis, DIGSA) were also used. In addition, four crop species, field corn (Zea mays L., var. Dekalb 535, CORN), soybean (Glycine max L., var. Pella 86, SOY), upland rice (Oryza sp., var.Cocodrie, RICE) and wheat (Triticum aestivum L.) were included.
(§2) All plants were grown in 10 cm square plastic pots which were filled with a sandy loam soil mix. For pre-emerge tests, seeds were planted one day prior to application of the test compounds. For post-emerge tests, seeds were planted 8-21 days prior to the test to allow emergence and good foliage development prior to application of the test substances. At the time of the post-emerge application, plants of all species were usually at the 2-3 leaf stage of development.
(§3) All test compounds were dissolved in acetone and applied to the test units in a volume of 187 l/ha. Test materials were applied at rates ranging from 15 g ai/ha to 1000 g ai/ha using a track sprayer equipped with a TJ8001E even flow flat fan spray nozzle. Plants were arranged on a shelf so that the top of the canopy (post-emerge) or top of the soil surface (pre-emerge) was 40-45 cm below the nozzle. Pressurized air was used to force the test solution through the nozzle as it was mechanically advanced (via electrically driven chain drive) over the top of all test plants/pots. This application simulates a typical commercial field herbicide application.
(§4) Pre-emergence tests were top watered immediately after treatment to incorporate the test materials, then routinely top-watered for normal growth. Post-emerge test units were always bottom-watered.
(§5) At 14 days after application of the test materials, phytotoxicity ratings were recorded. A rating scale of 0-100 was used as previously described in Research Methods in Weed Science, 2nd edition, B. Truelove, Ed., Southern Weed Science Society, Auburn University, Auburn, Ala., 1977. Briefly, “0” corresponds to no damage and “100” corresponds to complete death of all plants in the test unit. This scale was used both to determine efficacy against weed species and damage to crop species. Herbicide activity data for various compounds of this invention, which are shown by compound No. in Tables 1-12, are shown in Tables 13 and 14.

[2] = system: lambsquarters (Chenopodium album, CHEAL); experiment: as above; details: POST emergent, 14 days after application, scale 0-100
Description: as §1, §2, §3, §4, §5

[3] = system: cocklebur (Xanthium strumarium, XANST); experiment: as above; details: POST emergent, 14 days after application, scale 0-100
Description: as §1, §2, §3, §4, §5

[4] = system: green foxtail (Setaria viridis, SETVI); experiment: as above; details: POST emergent, 14 days after application, scale 0-100
Description: as §1, §2, §3, §4, §5

[5] = system: sicklepod (Cassia obtusifolia, CASOB); experiment: as above; details: POST emergent, 14 days after application, scale 0-100
Description: as §1, §2, §3, §4, §5

[6] = system: barnyardgrass (Echinochloa crus-galli, ECHCG); experiment: as above; details: POST emergent, 14 days after application, scale 0-100
Description: as §1, §2, §3, §4, §5

[7] = system: ivyleaf morningglory (Ipomoea hederacea, IPOHE); experiment: as above; details: POST emergent, 14 days after application, scale 0-100
Description: as §1, §2, §3, §4, §5

[8] = system: large crabgrass (Digitaria sanguinalis, DIGSA); experiment: as above; details: POST emergent, 14 days after application, scale 0-100
Description: as §1, §2, §3, §4, §5

[9] = system: johnsongrass (Sorghum halepense, SORHA); experiment: as above; details: POST emergent, 14 days after application, scale 0-100
Description: as §1, §2, §3, §4, §5

[10] = system: velvetleaf (Abutilon theophrasti, ABUTH); experiment: as above; details: POST emergent, 14 days after application, scale 0-100
Description: as §1, §2, §3, §4, §5

[11] = system: redroot pigweed (Amaranthus retrofiexus, AMARE); experiment: as above; details: POST emergent, 14 days after application
Description: as §1, §2, §3, §4, §5

[12] = system: upland rice (Oryza sp., var.Cocodrie, RICE); experiment: Greenhouse herbicide screen, pre-emerge application, crop damage rating; details: PRE emergent, 14 days after application, rating scale 0-100
Description: as §1, §2, §3, §4, §5

[13] = system: field corn (Zea mays L., var. Dekalb 535, CORN); experiment: as above; details: PRE emergent, 14 days after application, rating scale 0-100
Description: as §1, §2, §3, §4, §5

[14] = system: common ragweed (Ambrosia artemisiifolia L., AMBEL); experiment: Greenhouse herbicide screen, pre-emerge application, phytotoxicity rating; details: PRE emergent, 14 days after application, rating scale 0-100
Description: as §1, §2, §3, §4, §5

[15] = system: lambsquarters (Chenopodium album, CHEAL); experiment: as above; details: PRE emergent, 14 days after application, rating scale 0-100
Description: as §1, §2, §3, §4, §5

[16] = system: cocklebur (Xanthium strumarium, XANST); experiment: as above; details: PRE emergent, 14 days after application, rating scale 0-100
Description: as §1, §2, §3, §4, §5

[17] = system: green foxtail (Setaria viridis, SETVI); experiment: as above; details: PRE emergent, 14 days after application, rating scale 0-100
Description: as §1, §2, §3, §4, §5

[18] = system: sicklepod (Cassia obtusifolia, CASOB); experiment: as above; details: PRE emergent, 14 days after application, rating scale 0-100
Description: as §1, §2, §3, §4, §5

[19] = system: barnyardgrass (Echinochloa crus-galli, ECHCG); experiment: as above; details: PRE emergent, 14 days after application, rating scale 0-100
Description: as §1, §2, §3, §4, §5

[20] = system: ivyleaf morningglory (Ipomoea hederacea, IPOHE); experiment: as above; details: PRE emergent, 14 days after application, rating scale 0-100
Description: as §1, §2, §3, §4, §5

[21] = system: large crabgrass (Digitaria sanguinalis, DIGSA); experiment: as above; details: PRE emergent, 14 days after application, rating scale 0-100
Description: as §1, §2, §3, §4, §5

[22] = system: johnsongrass (Sorghum halepense, SORHA); experiment: as above; details: PRE emergent, 14 days after application, rating scale 0-100
Description: as §1, §2, §3, §4, §5

[23] = system: velvetleaf (Abutilon theophrasti, ABUTH); experiment: as above; details: PRE emergent, 14 days after application, rating scale 0-100
Description: as §1, §2, §3, §4, §5

[24] = system: redroot pigweed (Amaranthus retrofiexus, AMARE); experiment: as above; details: PRE emergent, 14 days after application, rating scale 0-100
Description: as §1, §2, §3, §4, §5

[25] = system: upland rice (Oryza sp., var.Cocodrie, RICE); experiment: Greenhouse herbicide screen, post-emerge application, crop damage rating; details: POST emergent, 14 days after application, scale 0-100
Description: as §1, §2, §3, §4, §5

[26] = system: field corn (Zea mays L., var. Dekalb 535, CORN); experiment: as above; details: POST emergent, 14 days after application, scale 0-100
Description: as §1, §2, §3, §4, §5

In the case of `CN(C)NC(=O)c1cc(-n2c(=O)cc(C(F)(F)F)n(C)c2=O)ccc1Cl` [Compound 1-4], the “phytotoxicity rating AMBEL” value ([1]; 63 g ai/ha) is reported as 80, the “phytotoxicity rating AMBEL” value ([1]; 250 g ai/ha) is reported as 100 and the “phytotoxicity rating CHEAL” value ([2]; 63 g ai/ha) is reported as 99. For the same molecule, the “phytotoxicity rating CHEAL” value ([2]; 250 g ai/ha) was 100, the “phytotoxicity rating XANST” value ([3]; 63 g ai/ha) was 100 and the “phytotoxicity rating XANST” value ([3]; 250 g ai/ha) was 100. The “phytotoxicity rating SETVI” value ([4]; 63 g ai/ha) was 65, the “phytotoxicity rating SETVI” value ([4]; 250 g ai/ha) was 75 and the “phytotoxicity rating CASOB” value ([5]; 63 g ai/ha) was 70. For the same molecule, the “phytotoxicity rating CASOB” value ([5]; 250 g ai/ha) was 80, the “phytotoxicity rating ECHCO” value ([6]; 63 g ai/ha) was 65 and the “phytotoxicity rating ECHCO” value ([6]; 250 g ai/ha) was 95. The “phytotoxicity rating IPOHE” value ([7]; 63 g ai/ha) was 100, the “phytotoxicity rating IPOHE” value ([7]; 250 g ai/ha) was 100 and the “phytotoxicity rating DIGSA” value ([8]; 63 g ai/ha) was 35. For the same molecule, the “phytotoxicity rating DIGSA” value ([8]; 250 g ai/ha) was 55, the “phytotoxicity rating SORHA” value ([9]; 63 g ai/ha) was 50 and the “phytotoxicity rating SORHA” value ([9]; 250 g ai/ha) was 80. The “phytotoxicity rating ABUTH” value ([10]; 63 g ai/ha) was 100, the “phytotoxicity rating ABUTH” value ([10]; 250 g ai/ha) was 100 and the “phytotoxicity rating AMARE” value ([11]; 63 g ai/ha, scale 0-100 (0 no damage, 100 complete death)) was 100. For the same molecule, the “phytotoxicity rating AMARE” value ([11]; 250 g ai/ha, scale 0-100) was 100, the “crop damage rating RICE” value ([12]; 63 g ai/ha) was 0 and the “crop damage rating RICE” value ([12]; 250 g ai/ha) was 8. For the same molecule, the “crop damage rating CORN” value ([13]; 63 g ai/ha) was 35, the “crop damage rating CORN” value ([13]; 250 g ai/ha) was 75 and the “phytotoxicity rating AMBEL” value ([14]; 63 g ai/ha) was 0. For the same molecule, the “phytotoxicity rating AMBEL” value ([14]; 250 g ai/ha) was 40, the “phytotoxicity rating CHEAL” value ([15]; 63 g ai/ha) was 15 and the “phytotoxicity rating CHEAL” value ([15]; 250 g ai/ha) was 100. The “phytotoxicity rating XANST” value ([16]; 63 g ai/ha) was 0, the “phytotoxicity rating XANST” value ([16]; 250 g ai/ha) was 60 and the “phytotoxicity rating SETVI” value ([17]; 63 g ai/ha) was 0. The “phytotoxicity rating SETVI” value ([17]; 250 g ai/ha) was 35, the “phytotoxicity rating CASOB” value ([18]; 63 g ai/ha) was 0 and the “phytotoxicity rating CASOB” value ([18]; 250 g ai/ha) was 90. For the same molecule, the “phytotoxicity rating ECHCG” value ([19]; 63 g ai/ha) was 0, the “phytotoxicity rating ECHCG” value ([19]; 250 g ai/ha) was 40 and the “phytotoxicity rating IPOHE” value ([20]; 63 g ai/ha) was 75. The “phytotoxicity rating IPOHE” value ([20]; 250 g ai/ha) was 100, the “phytotoxicity rating DIGSA” value ([21]; 63 g ai/ha) was 0 and the “phytotoxicity rating DIGSA” value ([21]; 250 g ai/ha) was 60. The “phytotoxicity rating SORHA” value ([22]; 63 g ai/ha) was 0, the “phytotoxicity rating SORHA” value ([22]; 250 g ai/ha) was 35 and the “phytotoxicity rating ABUTH” value ([23]; 63 g ai/ha) was 30. For the same molecule, the “phytotoxicity rating ABUTH” value ([23]; 250 g ai/ha) was 99, the “phytotoxicity rating AMARE” value ([24]; 63 g ai/ha) was 40 and the “phytotoxicity rating AMARE” value ([24]; 250 g ai/ha) was 95. The “crop damage rating RICE” value ([25]; 63 g ai/ha) was 10, the “crop damage rating RICE” value ([25]; 250 g ai/ha) was 65 and the “crop damage rating CORN” value ([26]; 63 g ai/ha) was 65. The “crop damage rating CORN” value ([26]; 250 g ai/ha) was 99.
